Experiments:
Assay type in all cases: biochemical
FGFR1 V561M = target: T1, FGFR1 V561M (Homo sapiens, UniProt P11362, V561M); experiment: Assay I: inhibitory activity against FGFR mutants (HTRF KinEASE-TK); conditions: ATP 5 μM, substrate TK 1 μM
T1 construct: purchased Signalchem F04-13G
Experimental: (§1) Assay I: Determination of Inhibitory Activity Against FGFR Mutants
(§2) 1. Reagents and Equipment
(§3) 2.1 Preparation of 1× Kinase Reaction Buffer:
(§4) 1× Kinase reaction buffer was formulated with 1× volume of 5× kinase reaction buffer and 4× volume of water; 5 mM MgCl2; and 1 mM DTT.
(§5) 2.3 Screening of Compounds:
(§6) 1. Diluting a compound 4-fold in a dilution plate with DMSO, with a starting compound concentration of 2 mM.
(§7) 2. Diluting the compound 40-fold into 1× kinase reaction buffer and shaking it on a shaker for 20 minutes.
(§8) 5. Adding 1 μl of the compound diluted in buffer to each well, sealing the plate with a sealing membrane and centrifuging the plate at 1000 g for 30 seconds and leaving it at room temperature for 10 minutes.
(§9) 6. Formulating 2.5×TK-substrate-biotin and ATP mixture with 1× enzyme reaction buffer and adding 2 μl of K-substrate-biotin/ATP mixture to the reaction plate.
(§10) 7. Sealing the plate with a sealing membrane and centrifuging the plate at 1000 g for 30 seconds and allowing it to react at room temperature for 50 minutes.
(§11) 8. Formulating 4× Sa-XL 665 (250 nM) with HTRF assay buffer.
(§12) 9. Adding 5 μl Sa-XL 665 and 5 μl TK-Antibody-Cryptate to each well, centrifuging it at 1000 g for 30 seconds, and allowing it to react for 1 hour at room temperature.
(§13) 10. Reading fluorescence signals at 615 nm (Cryptate) and 665 nm (XL665) with Biotek.
(§14) 3.1 Calculation of the ratio for each well: the ratio was calculated as 665/615 nm.
(§15) 3.3 Calculation of IC50 and plotting of inhibition curves for the compounds.
(§16) The IC50 (half inhibition concentration) of a compound was obtained using the following non-linear fitting equation, wherein data analysis was performed using Graphpad 6.0 software.
(§17) Y=Bottom+(Top−Bottom)/(1+10^((Log IC50−X)*Hill Slope)) • X: log value of compound concentration; and Y: inhibition rate (% inh)
(§18) 3.4 Validation of Results
(§19) Data were exported from Envision and analyzed manually. The ratios were converted to inhibition rates and IC50 was calculated by Prism GraphPad 6.0 from the inhibition rates. IC50 was calculated again by the ratios to verify accuracy of the results.

FGFR2 V564F = target: T2, FGFR2 V564F (Homo sapiens, UniProt P21802, V564F); experiment: as above; conditions: ATP 10 μM, substrate TK 1 μM
T2 construct: purchased Signalchem F05-12FG
T2 sequence (P21802 22-821 V564F): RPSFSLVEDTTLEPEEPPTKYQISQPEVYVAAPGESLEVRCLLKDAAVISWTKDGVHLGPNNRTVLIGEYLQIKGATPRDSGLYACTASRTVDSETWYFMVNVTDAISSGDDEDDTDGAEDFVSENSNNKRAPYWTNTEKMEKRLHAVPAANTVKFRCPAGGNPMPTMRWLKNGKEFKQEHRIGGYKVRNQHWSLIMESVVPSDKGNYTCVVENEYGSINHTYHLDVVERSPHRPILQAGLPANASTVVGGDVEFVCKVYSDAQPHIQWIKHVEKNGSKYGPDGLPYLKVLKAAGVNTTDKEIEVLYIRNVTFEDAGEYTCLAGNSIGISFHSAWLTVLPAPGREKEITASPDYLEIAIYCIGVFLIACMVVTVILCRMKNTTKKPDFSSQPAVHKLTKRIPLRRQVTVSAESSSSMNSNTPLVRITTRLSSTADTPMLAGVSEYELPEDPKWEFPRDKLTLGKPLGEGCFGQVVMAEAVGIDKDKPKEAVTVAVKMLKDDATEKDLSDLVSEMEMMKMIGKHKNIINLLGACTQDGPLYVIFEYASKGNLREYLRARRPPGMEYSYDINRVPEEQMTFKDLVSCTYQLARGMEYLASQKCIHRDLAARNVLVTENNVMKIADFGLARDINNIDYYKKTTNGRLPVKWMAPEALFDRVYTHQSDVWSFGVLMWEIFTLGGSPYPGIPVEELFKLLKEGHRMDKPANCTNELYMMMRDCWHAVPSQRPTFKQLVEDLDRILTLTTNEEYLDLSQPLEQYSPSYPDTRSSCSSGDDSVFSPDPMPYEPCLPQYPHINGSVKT
Experimental: as §1, §2, §3, §4, §5, §6, §7, §8, §9, §10, §11, §12, §13, §14, §15, §16, §17, §18, §19

FGFR3 V555M = target: T3, FGFR3 V555M (Homo sapiens, UniProt P22607, V555M); experiment: as above; conditions: ATP 20 μM, substrate TK 1 μM
T3 construct: purchased Signalchem F06-12GG
T3 sequence (P22607 397-806 V555M limits assumed): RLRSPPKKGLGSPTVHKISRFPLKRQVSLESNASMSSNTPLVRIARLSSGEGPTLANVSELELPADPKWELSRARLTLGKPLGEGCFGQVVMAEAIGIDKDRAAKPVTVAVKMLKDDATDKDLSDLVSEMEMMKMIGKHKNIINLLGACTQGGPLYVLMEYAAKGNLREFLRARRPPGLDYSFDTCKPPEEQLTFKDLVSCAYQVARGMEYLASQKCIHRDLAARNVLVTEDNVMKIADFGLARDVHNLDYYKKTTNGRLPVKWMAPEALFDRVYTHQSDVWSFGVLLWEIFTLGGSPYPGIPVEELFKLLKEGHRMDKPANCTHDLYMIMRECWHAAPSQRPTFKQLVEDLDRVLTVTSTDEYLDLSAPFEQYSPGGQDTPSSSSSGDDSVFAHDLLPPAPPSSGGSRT
Experimental: as §1, §2, §3, §4, §5, §6, §7, §8, §9, §10, §11, §12, §13, §14, §15, §16, §17, §18, §19

VEGFR2 = target: T4, VEGFR2 (Homo sapiens, UniProt P35968); experiment: Assay I: VEGFR2 kinase inhibition (HTRF KinEASE-TK); conditions: ATP 5 μM, substrate TK 1 μM
T4 construct: purchased Carna 08-191
T4 sequence (P35968 20-1356): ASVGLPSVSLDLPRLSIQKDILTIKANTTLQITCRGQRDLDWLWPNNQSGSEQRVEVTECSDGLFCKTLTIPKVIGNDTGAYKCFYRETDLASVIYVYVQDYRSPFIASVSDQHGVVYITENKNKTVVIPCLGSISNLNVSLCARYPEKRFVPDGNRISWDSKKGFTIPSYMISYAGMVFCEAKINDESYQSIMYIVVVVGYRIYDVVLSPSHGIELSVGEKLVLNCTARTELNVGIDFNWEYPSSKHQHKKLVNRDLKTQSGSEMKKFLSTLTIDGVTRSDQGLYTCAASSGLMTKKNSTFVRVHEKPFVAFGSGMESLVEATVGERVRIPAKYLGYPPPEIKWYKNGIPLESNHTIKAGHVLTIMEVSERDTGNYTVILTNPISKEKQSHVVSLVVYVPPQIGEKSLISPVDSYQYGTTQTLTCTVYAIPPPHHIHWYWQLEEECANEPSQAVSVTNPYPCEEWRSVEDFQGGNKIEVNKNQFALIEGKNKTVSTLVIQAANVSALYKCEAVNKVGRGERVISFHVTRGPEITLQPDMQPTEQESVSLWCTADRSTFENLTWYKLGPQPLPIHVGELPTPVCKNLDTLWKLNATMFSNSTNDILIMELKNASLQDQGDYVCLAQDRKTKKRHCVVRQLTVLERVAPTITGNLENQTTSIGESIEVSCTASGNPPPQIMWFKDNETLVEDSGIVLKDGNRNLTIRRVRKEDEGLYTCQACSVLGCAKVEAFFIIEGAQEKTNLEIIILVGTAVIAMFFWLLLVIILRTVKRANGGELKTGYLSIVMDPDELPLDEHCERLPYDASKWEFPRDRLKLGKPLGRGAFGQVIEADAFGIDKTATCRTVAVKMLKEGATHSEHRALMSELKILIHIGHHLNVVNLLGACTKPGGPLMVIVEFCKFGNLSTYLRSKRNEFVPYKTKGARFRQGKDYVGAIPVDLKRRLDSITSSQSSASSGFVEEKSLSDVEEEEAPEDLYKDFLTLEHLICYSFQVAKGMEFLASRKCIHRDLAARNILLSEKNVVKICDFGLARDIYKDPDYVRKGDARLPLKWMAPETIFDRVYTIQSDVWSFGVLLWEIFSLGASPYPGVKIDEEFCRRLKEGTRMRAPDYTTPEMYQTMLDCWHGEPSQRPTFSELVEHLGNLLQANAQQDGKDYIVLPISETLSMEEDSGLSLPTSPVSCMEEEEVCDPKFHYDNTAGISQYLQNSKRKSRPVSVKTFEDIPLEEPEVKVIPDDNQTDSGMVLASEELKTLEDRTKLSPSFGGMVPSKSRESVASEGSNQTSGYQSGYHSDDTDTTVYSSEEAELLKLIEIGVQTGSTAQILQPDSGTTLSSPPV
Experimental: as §1, §2, §3, §4, §5, §6, §7
3. Formulating 2×FGFR1 V561M/FGFR2 V564F/FGFR3 K650E/VEGFR2 with 1× of enzyme reaction buffer.
4. Adding 2 μl FGFR1 V561M/FGFR2 V564F/FGFR3 K650E/VEGFR2 kinase (formulated in step 3) to each well of the reaction plate.
as §8, §9, §10, §11, §12, §13, §14, §15, §16, §17, §18, §19
Positive control IC50 was within 3 times of the average value

FGFR1 = target: T5, FGFR1 (Homo sapiens, UniProt P11362); experiment: Assay II: inhibitory activity against wild-type FGFR (HTRF KinEASE-TK); conditions: ATP 50 μM, substrate TK 1 μM
T5 construct: purchased Carna 08-133
T5 sequence (P11362 22-822): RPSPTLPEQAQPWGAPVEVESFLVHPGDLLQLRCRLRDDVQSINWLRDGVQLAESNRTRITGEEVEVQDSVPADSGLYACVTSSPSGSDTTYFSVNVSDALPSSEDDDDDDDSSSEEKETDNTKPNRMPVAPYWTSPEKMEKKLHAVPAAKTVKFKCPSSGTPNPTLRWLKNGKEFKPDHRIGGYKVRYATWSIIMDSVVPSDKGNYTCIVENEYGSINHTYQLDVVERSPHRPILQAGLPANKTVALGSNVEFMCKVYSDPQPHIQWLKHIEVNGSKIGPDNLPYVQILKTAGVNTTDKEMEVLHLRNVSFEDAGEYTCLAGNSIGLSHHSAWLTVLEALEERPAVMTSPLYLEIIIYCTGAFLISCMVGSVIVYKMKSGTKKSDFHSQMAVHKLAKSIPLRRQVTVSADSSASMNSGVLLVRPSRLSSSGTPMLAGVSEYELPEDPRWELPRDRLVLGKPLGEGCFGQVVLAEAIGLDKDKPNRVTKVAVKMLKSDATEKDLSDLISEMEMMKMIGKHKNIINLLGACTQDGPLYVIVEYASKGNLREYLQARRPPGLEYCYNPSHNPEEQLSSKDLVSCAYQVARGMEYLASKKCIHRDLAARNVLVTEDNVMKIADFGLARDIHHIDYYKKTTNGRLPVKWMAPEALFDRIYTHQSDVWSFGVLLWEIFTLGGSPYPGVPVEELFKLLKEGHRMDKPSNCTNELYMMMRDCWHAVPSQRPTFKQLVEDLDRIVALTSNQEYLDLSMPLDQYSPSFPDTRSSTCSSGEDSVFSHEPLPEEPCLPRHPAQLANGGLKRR
Experimental: (§20) Assay II: Determination of Inhibitory Activity Against Wild-Type FGFR
as §2
(§21) 2. Experimental Steps PGP-5T
as §3, §4, §5, §6, §7
(§22) 3. Formulating 2×FGFR1/FGFR2/FGFR3 with 1× of enzyme reaction buffer.
(§23) 4. Adding 2 μl FGFR1/FGFR2/FGFR3 kinase (formulated in step 3) to each well of the reaction plate.
as §8
(§24) 6. Formulating 2.5×TK-substrate-biotin and ATP mixture with 1× enzyme reaction buffer and add 2 μl of K-substrate-biotin/ATP mixture to the reaction plate.
as §10, §11, §12, §13, §14, §15, §16, §17, §18, §19

FGFR2 = target: T6, FGFR2 (Homo sapiens, UniProt P21802); experiment: as above; conditions: ATP 50 μM, substrate TK 1 μM
T6 construct: purchased Carna 08-134
T6 sequence (P21802 22-821): as the sequence (P21802 22-821 V564F) above, with F543V counted along it
Experimental: as §20, §2, §21, §3, §4, §5, §6, §7, §22, §23, §8, §24, §10, §11, §12, §13, §14, §15, §16, §17, §18, §19

FGFR3 = target: T7, FGFR3 (Homo sapiens, UniProt P22607); experiment: as above; conditions: ATP 50 μM, substrate TK 1 μM
T7 construct: purchased Carna 08-135
T7 sequence (P22607 23-806): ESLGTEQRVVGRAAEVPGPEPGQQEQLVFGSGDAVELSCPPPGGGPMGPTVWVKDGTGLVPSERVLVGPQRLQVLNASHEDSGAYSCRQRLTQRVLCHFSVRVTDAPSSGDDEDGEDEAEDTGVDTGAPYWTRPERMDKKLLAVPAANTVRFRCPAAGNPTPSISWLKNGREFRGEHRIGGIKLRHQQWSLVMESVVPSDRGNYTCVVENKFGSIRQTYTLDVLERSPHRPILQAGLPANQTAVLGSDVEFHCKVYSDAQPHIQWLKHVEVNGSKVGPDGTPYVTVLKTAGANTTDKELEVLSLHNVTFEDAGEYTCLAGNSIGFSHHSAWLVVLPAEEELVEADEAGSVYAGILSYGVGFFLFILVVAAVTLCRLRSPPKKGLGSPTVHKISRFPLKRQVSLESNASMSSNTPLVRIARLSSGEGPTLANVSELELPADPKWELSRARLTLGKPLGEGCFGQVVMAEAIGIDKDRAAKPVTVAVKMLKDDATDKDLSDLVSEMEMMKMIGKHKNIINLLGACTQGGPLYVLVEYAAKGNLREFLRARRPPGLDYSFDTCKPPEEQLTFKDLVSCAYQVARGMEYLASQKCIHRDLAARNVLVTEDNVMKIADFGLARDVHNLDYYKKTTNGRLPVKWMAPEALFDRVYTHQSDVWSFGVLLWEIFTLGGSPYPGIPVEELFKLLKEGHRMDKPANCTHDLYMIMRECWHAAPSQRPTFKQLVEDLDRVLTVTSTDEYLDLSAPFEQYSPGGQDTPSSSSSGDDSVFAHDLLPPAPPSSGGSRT
Experimental: as §20, §2, §21, §3, §4, §5, §6, §7, §22, §23, §8, §24, §10, §11, §12, §13, §14, §15, §16, §17, §18, §19

T1 sequence (P11362 22-822 V561M): as the sequence (P11362 22-822) above, with V540M counted along it

SMILES | IC50 (FGFR1 V561M) [nM] | IC50 (FGFR2 V564F) [nM] | IC50 (FGFR3 V555M) [nM] | IC50 (VEGFR2) [nM] | IC50 (FGFR1) [nM] | IC50 (FGFR2) [nM] | IC50 (FGFR3) [nM]
CC(Oc1ccc2[nH]nc(-c3nc4c([nH]3)CN(C(=O)N3CCN(C)CC3)C4)c2c1)c1c(Cl)cncc1Cl (stereo not shown) [Compound 1, (2-(5-(1-(3,5-dichloropyridin-4-yl)ethoxy)-1H-indazol-3-yl)-4,6-dihydropyrrolo[3,4-d]imidazol-5(1H)-yl)(4-methylpiperazin-1-yl)ketone] | 0.26 | 0.34 | 0.34 | 1 | 2.7 | 2.9 | 4.1
CC(Oc1ccc2[nH]nc(-c3nc4c([nH]3)CN(C(=O)N3CCN(C)CC3)CC4)c2c1)c1c(Cl)cncc1Cl (stereo not shown) [Compound 5, (2-(5-(1-(3,5-dichloropyridin-4-yl)ethoxy)-1H-indazol-3-yl)-3,4,6,7-tetrahydro-5H-imidazo[4,5-c]pyridin-5-yl)(4-methylpiperazin-1-yl)ketone] | 0.58 | 0.36 | 0.23 | 0.75 | 1.8 | 2.1 | 3.8
CC(Oc1ccc2[nH]nc(-c3nc4c([nH]3)CN(C(=O)N3CCOCC3)C4)c2c1)c1c(Cl)cncc1Cl (stereo not shown) [Compound 8, (2-(5-(1-(3,5-dichloropyridin-4-yl)ethoxy)-1H-indazol-3-yl)-4,6-dihydropyrrolo[3,4-d]imidazol-5(1H)-yl)(morpholinyl)ketone] | 0.33 | 0.36 | 0.45 | 2.1 | 4.1 | 2.8 | 4.5
C[C@@H](Oc1ccc2[nH]nc(-c3nc4c([nH]3)CN(C(=O)CN3CC[C@@H](O)C3)C4)c2c1)c1c(Cl)cncc1Cl [Compound 41, 1-(2-(5-((R)-1-(3,5-Dichloropyridin-4-yl)ethoxy)-1H-indazol-3-yl)-4,6-dihydropyrrolo[3,4-d]imidazol-5(1H)-yl)-2-((R)-3-hydroxypyrrolidin-1-yl)ethan-1-one] | 0.26 | 0.23 | 0.1 | 2.4 | – | – | –
C[C@@H](Oc1ccc2[nH]nc(-c3nc4c([nH]3)CN(C(=O)CN3CC[C@H](O)C3)C4)c2c1)c1c(Cl)cncc1Cl [Compound 42, 1-(2-(5-((R)-1-(3,5-Dichloropyridin-4-yl)ethoxy)-1H-indazol-3-yl)-4,6-dihydropyrrolo[3,4-d]imidazol-5(1H)-yl)-2-((S)-3-hydroxypyrrolidin-1-yl)ethan-1-one] | 1 | 0.18 | 0.33 | 10.3 | – | – | –
C[C@@H](Oc1ccc2[nH]nc(-c3nc4c([nH]3)CN(C(=O)CN(C)C)C4)c2c1)c1c(Cl)cncc1Cl [Compound 43, (R)-1-(2-(5-(1-(3,5-dichloropyridin-4-yl)ethoxy)-1H-indazol-3-yl)-4,6-dihydropyrrolo[3,4-d]imidazol-5(1H)-yl)-2-(dimethylamino)ethan-1-one] | 0.26 | 0.13 | 0.35 | 3.3 | – | – | –
C[C@@H](Oc1ccc2[nH]nc(-c3nc4c([nH]3)CN(C(=O)[C@@H]3CCCN3)C4)c2c1)c1c(Cl)cncc1Cl [Compound 44, 3-(5-(L-prolinyl)-1,4,5,6-tetrahydropyrrolo[3,4-d]imidazol-2-yl)-5-((R)-1-(3,5-dichloropyridin-4-yl)ethoxy)-1H-indazole] | 0.82 | 0.32 | 0.43 | 5.3 | – | – | –
C[C@@H](Oc1ccc2[nH]nc(-c3nc4c([nH]3)CN(C(=O)[C@@H]3CCCN3C)C4)c2c1)c1c(Cl)cncc1Cl [Compound 45, 5-((R)-1-(3,5-dichloropyridin-4-yl)ethoxy)-3-(5-(methyl-L-prolinyl)-1,4,5,6-tetrahydropyrrolo[3,4-d]imidazol-2-yl)-1H-indazole] | 0.81 | 0.36 | 0.18 | 7.6 | – | – | –
C[C@@H](Oc1ccc2[nH]nc(-c3nc4c([nH]3)CN(C(=O)[C@@H]3CCCCN3)C4)c2c1)c1c(Cl)cncc1Cl [Compound 46, (2-(5-((R)-1-(3,5-dichloropyridin-4-yl)ethoxy)-1H-indazol-3-yl)-4,6-dihydropyrrolo[3,4-d]imidazol-5(1H)-yl)((S)-piperidin-2-yl)ketone] | 0.65 | 0.29 | 0.33 | 9.9 | – | – | –
C[C@@H](Oc1ccc2[nH]nc(-c3nc4c([nH]3)CN(C(=O)[C@@H]3CCCCN3C)C4)c2c1)c1c(Cl)cncc1Cl [Compound 47, (2-(5-((R)-1-(3,5-dichloropyridin-4-yl)ethoxy)-1H-indazol-3-yl)-4,6-dihydropyrrolo[3,4-d]imidazol-5(1H)-yl)((S)-1-methylpiperidin-2-yl)ketone] | 0.29 | 0.21 | 0.14 | 2.5 | – | – | –
C[C@@H](Oc1ccc2[nH]nc(-c3nc4c([nH]3)CN(C(=O)CN3CCCCC3)C4)c2c1)c1c(Cl)cncc1Cl [Compound 50, (R)-1-(2-(5-(1-(3,5-dichloropyridin-4-yl)ethoxy)-1H-indazol-3-yl)-4,6-dihydropyrrolo[3,4-d]imidazol-5(1H)-yl)-2-(piperidin-1-yl)ethan-1-one] | 1.2 | 0.21 | 0.35 | 8.4 | – | – | –
C[C@@H](Oc1ccc2[nH]nc(-c3nc4c([nH]3)CN(C(=O)CN3CCC3)C4)c2c1)c1c(Cl)cncc1Cl [Compound 51, (R)-2-(Azetidin-1-yl)-1-(2-(5-(1-(3,5-dichloropyridin-4-yl)ethoxy)-1H-indazol-3-yl)-4,6-dihydropyrrolo[3,4-d]imidazol-5(1H)-yl)ethan-1-one] | 0.74 | 0.21 | 0.16 | 14.2 | – | – | –
C[C@@H](Oc1ccc2[nH]nc(-c3nc4c([nH]3)CN(C(=O)CN3CC(O)C3)C4)c2c1)c1c(Cl)cncc1Cl [Compound 52, (R)-1-(2-(5-(1-(3,5-Dichloropyridin-4-yl)ethoxy)-1H-indazol-3-yl)-4,6-dihydropyrrolo[3,4-d]imidazol-5(1H)-yl)-2-(3-hydroxyazetidin-1-yl)ethan-1-one] | 0.87 | 0.16 | 0.14 | 13.6 | – | – | –
C[C@@H](Oc1ccc2[nH]nc(-c3nc4c([nH]3)CN(C(=O)CN3CC(F)C3)C4)c2c1)c1c(Cl)cncc1Cl [Compound 53, (R)-1-(2-(5-(1-(3,5-dichloropyridin-4-yl)ethoxy)-1H-indazol-3-yl)-4,6-dihydropyrrolo[3,4-d]imidazol-5(1H)-yl)-2-(3-fluoroazetidin-1-yl)ethan-1-one] | 6.4 | 0.82 | 1.9 | 45.5 | – | – | –
C[C@@H](Oc1ccc2[nH]nc(-c3nc4c([nH]3)CN(C(=O)OCCN(C)C)C4)c2c1)c1c(Cl)cncc1Cl [Compound 54, 2-(dimethylamino)ethyl(R)-2-(5-(1-(3,5-dichloropyridin-4-yl)ethoxy)-1H-indazol-3-yl)-4,6-dihydropyrrolo[3,4-d]imidazole-5(1H)-carboxylate] | 0.55 | 0.15 | 0.11 | 3.3 | – | – | –
C[C@@H](Oc1ccc2[nH]nc(-c3nc4c([nH]3)CN(C(=O)OC3CCN(C)C3)C4)c2c1)c1c(Cl)cncc1Cl (stereo partly drawn) [Compound 55, 1-Methylpyrrolidin-3-yl 2-(5-((R)-1-(3,5-dichloropyridin-4-yl)ethoxy)-1H-indazol-3-yl)-4,6-dihydropyrrolo[3,4-d]imidazole-5(1H)-carboxylate] | 5.1 | 0.34 | 0.87 | 13.4 | – | – | –

From patent publication US20230374025A1, “FGFR INHIBITOR COMPOUND AND USE THEREOF” (SHENZHEN KANGSU PHARMACEUTICAL TECHNOLOGY CO., LTD., priority 2021, published 2023)
